Reference: US7435548B2, “Methods for producing ex vivo models for inflammatory disease and uses thereof” (deCODE genetics ehf., priority 2001, dated 2008)

Assays:
[1] = test system: airway smooth muscle (ASM) tissues; assay: ASM constrictor responses to acetylcholine (organ bath, isometric tension); assay type: tissue-based, New Zealand White rabbits
Procedure: (§1) After anesthesia with xylazine (10 mg/kg) and ketamine (50 mg/kg), the animals were sacrificed with systemic air embolism.
(§2) After incubation, each airway segment was suspended longitudinally between stainless steel triangular supports in siliconized 20-mL organ baths (Harvard Apparatus, Inc., South Natick, Mass.). […] Care was taken to place the membranous portion of the trachea between the supports to maximize the recorded tension generated by the contracting trachealis muscle. […] Passive resting tension of each tracheal smooth muscle segment was set at 2.0 g after each tissue had been passively stretched to a tension of 8 g to optimize the resting length of each segment. The tissues were allowed to equilibrate in the bath for 45 minutes, at which time each tissue was primed with a 1 minute exposure to 10^−4M acetylcholine (ACh). Cholinergic contractility was initially assessed in the ASM by cumulative administration of ACh in final bath concentrations from 10^−9 to 10^−3M. […] The relaxant responses to isoproterenol were analyzed in terms of percent maximal relaxation (Rmax) from the active cholinergic contraction, and sensitivity to the relaxing agent was determined as the corresponding pD50 value associated with 50% Rmax.

human ASM cells = assay: Microarray mRNA expression (Affymetrix HU95GeneFL) in cultured ASM cells; assay type: cell-based
Source text: Simultaneous multiple gene mRNA expression was examined in human ASM cells with the Affymetrix expression microarray system using human gene chips (HU95GeneFL array; Affymetrix, Santa Clara, Calif.) representing approximately 6000 genes. The ASM cells were derived from a donor (Clonetics Corp., San Diego, Calif.) who had no evidence of pulmonary disease, and the cells were carefully characterized by the manufacturer with specific markers to confirm their selective smooth muscle phenotype and to exclude contamination with other cell types.
Following incubation of the cells, the total RNA used for the Affymetrix microarray expression analysis was extracted and purified using commercially available reagents and in accordance with methods recommended by the manufacturer (Affymetrix, Santa Clara, Calif.). Briefly, total RNA was extracted using Trizol and purified with Qiagen RNAEASY spin columns (Qiagen GmbH, Germany). Approximately 5 μg of RNA was used for first and second strand cDNA synthesis. After precipitation, the cDNAs were transcribed to cRNAs. The biotinylated cRNA was subsequently hybridized to the Affymetrix gene chips overnight. Non-bound probes were removed by stringency washing. The hybridized chips were developed using a Streptavidin-Phycoerythrin complex and scanned. The scanned images were then analyzed with Affymetrix software and the data was examined using commercially available software programs, including Spotfire Net 5.1 (Spotfire Inc, Mass.).

[2] = test system: airway smooth muscle (ASM) tissues; assay: ASM relaxant responses to isoproterenol after half-maximal ACh contraction (organ bath); assay type: tissue-based, New Zealand White rabbits; details: control ASM
Procedure: as §1, §2

[3] = control ASM (medium alone), mean±SE

CC(=O)OCC[N+](C)(C)C [ACh, acetylcholine]
maximal isometric force of contraction (Tmax) to ACh [1, 3]: 93.7±8.9 g/g ASM weight | pD50 (−log ED50) for ACh [1, 3]: 4.66±0.12 −logM

C[C@@H]1C[C@H]2[C@@H]3CCC4=CC(=O)C=C[C@]4(C)[C@@]3(F)[C@@H](O)C[C@]2(C)[C@@]1(O)C(=O)CO [DEX, dexamethasone]
effect on constrictor responses to ACh in control tissues ([1]; DEX 10^−5M alone): no effect | Tmax to ACh ([1]; IL-1β/TNFα exposed ASM pre-treated 1 hour with DEX 10^−5M, mean±SE): 102.9±13.1 g/g ASM weight | MER, ABCB2 (human ASM cells; ATP-binding cassette, ABCB2/X57522, IL-1β/TNFα, presence or absence of DEX 10^−5M): 1.75 | MER, AMPD3 (human ASM cells; Adenosine monophosphate deaminase, AMPD3/D12775, IL-1β/TNFα, presence versus absence of DEX 10^−5M): 0.82 | MER, BCL2A1 (human ASM cells; BCL2-related protein A1, BCL2A1/U29680, IL-1β/TNFα, presence versus absence of DEX 10^−5M): 0.41 | MER, BKR2 (human ASM cells; Bradykinin receptor-2, BKR2/X86163, IL-1β/TNFα, presence versus absence of DEX 10^−5M): 0.62 | MER, CD83 (human ASM cells; CD83, CD83/Z11697, IL-1β/TNFα, presence versus absence of DEX 10^−5M): 0.56 | MER, CKS2 (human ASM cells; CDC28 protein kinase-2, CKS2/X54942, IL-1β/TNFα, presence versus absence of DEX 10^−5M): 0.80 | MER, CEBPD (human ASM cells; Enhancer binding protein, CEBPD/M83667, IL-1β/TNFα, presence or absence of DEX 10^−5M): 1.48 | MER, FGF2 (human ASM cells; Fibroblast growth factor-2, FGF2/J04513, IL-1β/TNFα, presence versus absence of DEX 10^−5M): 0.69 | MER, GBP1 (human ASM cells; Guanylate binding protein-1, GBP1/M55542, IL-1β/TNFα, presence or absence of DEX 10^−5M): 1.22 | MER, HSD11B1 (human ASM cells; Hydroxysteroid (11-β) dehydrogenase-1, HSD11B1/M7665, IL-1β/TNFα, presence or absence of DEX 10^−5M): 2.57 | MER, INHBA (human ASM cells; Inhibin, INHBA/X57579, IL-1β/TNFα, presence versus absence of DEX 10^−5M): 0.00 | MER, ICAM-1 (human ASM cells; Intercellular adhesion molecule-1, ICAM-1/M24283, mRNA elicited by IL-1β/TNFα in presence versus absence of DEX 10^−5M): 0.66 | MER, IL-6 (human ASM cells; Interleukin-6, IL-6/X04602, IL-1β/TNFα, presence versus absence of DEX 10^−5M): 0.89 | MER, IL-8 (human ASM cells; Interleukin-8, IL-8/M28130, IL-1β/TNFα, presence versus absence of DEX 10^−5M): 0.57 | MER, Interleukin-13 receptor-α (human ASM cells; Interleukin-13 receptor-α, IL-1 RA2/U70981, IL-1β/TNFα, presence versus absence of DEX 10^−5M): 0.00 | MER, KIAA0247 (human ASM cells; KIAA0247 gene product, KIAA0247/D87434, IL-1β/TNFα, presence or absence of DEX 10^−5M): 1.3 | MER, MMP3 (human ASM cells; Matrix metalloproteinase-3, MMP3/X05232, IL-1β/TNFα, presence versus absence of DEX 10^−5M): 0.70 | MER, MMP10 (human ASM cells; Matrix metalloproteinase-10, MMP10/X07820, IL-1β/TNFα, presence versus absence of DEX 10^−5M): 0.00 | MER, MMP12 (human ASM cells; Matrix metalloproteinase-12, MMP12/L23808, IL-1β/TNFα, presence versus absence of DEX 10^−5M): 0.20 | MER, MAP3K5 (human ASM cells; Mitogen-activated protein kinase kinase kinase-5, MAP3K5/U67156, IL-1β/TNFα, presence or absence of DEX 10^−5M): 1.65 | MER, MDCP (human ASM cells; Monocyte-derived chemotactic protein, MDCP/HG4069, IL-1β/TNFα, presence versus absence of DEX 10^−5M): 0.29 | MER, NAF1 (human ASM cells; Nef-associated factor 1, NAF1/D30755, IL-1β/TNFα, presence versus absence of DEX 10^−5M): 0.88 | MER, NINJ1 (human ASM cells; Ninjurin-1, NINJ1/U72661, IL-1β/TNFα, presence versus absence of DEX 10^−5M): 0.59 | MER, NFATC1 (human ASM cells; Nuclear factor of activated T cells-C1, NFATC1/U08015, IL-1β/TNFα, presence versus absence of DEX 10^−5M): 0.61 | MER, NFKB1 (human ASM cells; Nuclear factor of kappa light polypeptide, NFKB1/M58603, IL-1β/TNFα, presence versus absence of DEX 10^−5M): 0.87 | MER, NR4A3 (human ASM cells; Nuclear receptor subfamily 4, NR4A3/U12767, IL-1β/TNFα, presence versus absence of DEX 10^−5M): 0.54 | MER, PTX3 (human ASM cells; PTX3 promoter, PTX3/X97748, IL-1β/TNFα, presence versus absence of DEX 10^−5M): 0.69 | MER, PDE4B (human ASM cells; Phosphodiesterase-4B, PDE4B/L20971, IL-1β/TNFα, presence versus absence of DEX 10^−5M): 0.40 | MER, ATP2B1 (human ASM cells; Plasma membrane Ca^2+ ATPase, ATP2B1/J04027, IL-1β/TNFα, presence versus absence of DEX 10^−5M): 0.34 | MER, PBEF (human ASM cells; Pre-B cell colony-enhancing factor, PBEF/U02020, IL-1β/TNFα, presence versus absence of DEX 10^−5M): 0.73 | MER, G0S2 (human ASM cells; Putative lymphocyte G0/G1 switch gene, G0S2/M72885, IL-1β/TNFα, presence versus absence of DEX 10^−5M): 0.65 | MER, RANTES (human ASM cells; RANTES, RANTES/M21121, IL-1β/TNFα, presence versus absence of DEX 10^−5M): 0.67 | MER, STAT5A (human ASM cells; Signal transducer/activator of transcription 5, STAT5A/U43185, IL-1β/TNFα, presence versus absence of DEX 10^−5M): 0.87 | MER, SCYA7 (human ASM cells; Small inducible cytokine subfamily A7, SCYA7/X72308, IL-1β/TNFα, presence versus absence of DEX 10^−5M): 0.50 | MER, SCYB2 (human ASM cells; Small inducible cytokine subfamily B2, SCYB2/M57731, IL-1β/TNFα, presence versus absence of DEX 10^−5M): 0.52 | MER, SCYB3 (human ASM cells; Small inducible cytokine subfamily B3, SCYB3/X53800, IL-1β/TNFα, presence versus absence of DEX 10^−5M): 0.83 | MER, SCYB6 (human ASM cells; Small inducible cytokine subfamily B6, SCYB6/U83303, IL-1β/TNFα, presence versus absence of DEX 10^−5M): 0.61 | MER, SCYB10 (human ASM cells; Small inducible cytokine subfamily B10, SCYB10/X02530, IL-1β/TNFα, presence or absence of DEX 10^−5M): 1.12 | MER, SCYB5 (human ASM cells; Small inducible subfamily B5, SCYB5/L37036, IL-1β/TNFα, presence or absence of DEX 10^−5M): 1.75 | MER, SOD2 (human ASM cells; Superoxide dismutase-2, SOD2/X07834, IL-1β/TNFα, presence versus absence of DEX 10^−5M): 0.89 | MER, Tenascin C (human ASM cells; Tenascin C, HXB/X78565, IL-1β/TNFα, presence or absence of DEX 10^−5M): 1.21 | MER, TNF-αIP3 (human ASM cells; Tumor necrosis factor-α-induced protein 3, TNF-αIP3/M59465, IL-1β/TNFα, presence or absence of DEX 10^−5M): 1.21 | MER, TNF-αIP6 (human ASM cells; Tumor necrosis factor-α-induced protein 6, TNF-αIP6/M31165, IL-1β/TNFα, presence or absence of DEX 10^−5M): 1.11 | MER, uPA (human ASM cells; Urokinase plasminogen activator, uPA/X02419, IL-1β/TNFα, presence versus absence of DEX 10^−5M): 0.00 | inhibition of IL-1β/TNFα induced mRNA expression, p50-NF-kB gene (human ASM cells; in the presence of DEX 10^−5M): 51% | inhibition of IL-1β/TNFα induced mRNA expression, phosphodiesterase D4 gene (human ASM cells; in the presence of DEX 10^−5M): 60% | inhibition of IL-1β/TNFα induced mRNA expression, plasma membrane Ca^2+ ATPase gene (human ASM cells; in the presence of DEX 10^−5M): 66% | MER, pro-Interleukin-1β (human ASM cells; pro-Interleukin-1β, IL-1β/X04500, IL-1β/TNFα, presence versus absence of DEX 10^−5M): 0.45

CC(C)NCC(O)c1ccc(O)c(O)c1 (stereo not drawn) [isoproterenol]
EC50 ([2]; Oryctolagus cuniculus, read-out: pD50 for isoproterenol (converted)): 813 nM | maximal relaxation (Rmax) to isoproterenol [2]: 57.7±7.1%
